Measured values from US8247211B2, “Glycopeptide antibiotics” (American Cyanamid Company, priority 2001, dated 2012).

How the values were obtained:
Assay in all cases: In vitro antibacterial evaluation: minimum inhibitory concentration (MIC), broth dilution method
Format in all cases: cell-based
Streptococcus sp. = system: Streptococcus sp.
Summary of the method: (§1)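 NCCLS M7-A2 broth dilution with Mueller-Hinton II, testing 64-0.06 μg/mL antibiotic against 5×10^5 CFU/mL inocula. Test strains include recent methicillin-, penicillin- or vancomycin-resistant clinical isolates. MIC is the lowest concentration preventing growth.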

Escherichia coli = system: Escherichia coli
Summary of the method: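 Values are minimum inhibitory concentrations, meaning the smallest antibiotic concentration that stops growth of the organism. They come from broth dilution in Muller-Hinton II […] per NCCLS guidance (M7-A2), using 5×10^5 CFU/mL and concentrations from 64 to 0.06 μg/mL.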

Staphylococcus sp. = settings: for MIC Staphylococcus aureus (ATCC 29213) / MIC Staphylococcus aureus (GC 1131) / MIC Staphylococcus aureus (GC 3051) / MIC Staphylococcus aureus (GC 3053) / MIC Staphylococcus aureus (GC 4541) / MIC Staphylococcus aureus (GC 4542) / MIC Staphylococcus aureus (GC 4544) / MIC Staphylococcus aureus (GC 4545): broth dilution, 18 hours at 35° C.
Summary of the method: as §1

Enterococcus sp. = system: Enterococcus sp.
Summary of the method: as §1

[1] = broth dilution, inoculum 5×10^5 CFU/mL, 18 hours at 35° C.

CC(c1ccccc1)C1NC(=O)CNC(=O)C(CO)NC(=O)C(C(O)C2CNC(=N)N2C2OC(CO)C(O)C(O)C2O)NC(=O)C(C(O)C2CNC(=N)N2)NC(=O)C(Cc2ccc(OC3OC(CO)C(OC4OC5COC(c6cccc(OCc7ccc([N+](=O)[O-])cc7)c6)OC5C(O)C4O)C(O)C3O)cc2)NC1=O (stereo not drawn) [Example 182, Cyclo[glycyl-β-methylphenylalanyl-O-[4-O-[4,6-O-(3-[[(4-nitrophenyl)methoxy]benzylidene]hexopyranosyl]hexopyranosyl]tyrosyl-3-(2-iminoimidazolidin-4-yl)seryl-3-β-hexopyranosyl-2-iminoimidazolidin-4-yl)serylseryl]]
4 µg/mL: MIC Streptococcus pneumoniae (ATCC 6301) (Streptococcus sp.; [1]) | MIC Streptococcus pneumoniae (ATCC 6301) (Streptococcus sp.; strain ATCC 6301)
8 µg/mL: MIC Streptococcus pneumoniae (GC 1894) (Streptococcus sp.; [1]) | MIC Streptococcus pneumoniae (GC 4565) (Streptococcus sp.; [1]) | MIC Streptococcus pneumoniae (GC 1894) (Streptococcus sp.; strain GC 1894) | MIC Streptococcus pneumoniae (GC 4565) (Streptococcus sp.; strain GC 4565)
32 µg/mL: MIC Streptococcus agalactiae (GC 4564) (Streptococcus sp.; [1]) | MIC Streptococcus agalactiae (GC 4564) (Streptococcus sp.; strain GC 4564)
64 µg/mL: MIC Streptococcus pyogenes (GC 4563) (Streptococcus sp.; [1]) | MIC Streptococcus pyogenes (GC 4563) (Streptococcus sp.; strain GC 4563)
>64 µg/mL: MIC Escherichia coli (ATCC 25922) (Escherichia coli; strain ATCC 25922) | MIC Escherichia coli (GC 4559) (Escherichia coli; strain GC 4559) | MIC Escherichi coli (GC 4560) (Escherichia coli; strain GC 4560) | MIC Staphylococcus aureus (ATCC 29213) (Staphylococcus sp.; 5×10^5 CFU/mL) | MIC Staphylococcus aureus (GC 1131) (Staphylococcus sp.; 5×10^5 CFU/mL) | MIC Staphylococcus aureus (GC 3051) (Staphylococcus sp.; 5×10^5 CFU/mL) | MIC Staphylococcus aureus (GC 3053) (Staphylococcus sp.; 5×10^5 CFU/mL) | MIC Staphylococcus aureus (GC 4541) (Staphylococcus sp.; 5×10^5 CFU/mL) | MIC Staphylococcus aureus (GC 4542) (Staphylococcus sp.; 5×10^5 CFU/mL) | MIC Staphylococcus aureus (GC 4544) (Staphylococcus sp.; 5×10^5 CFU/mL) | MIC Staphylococcus aureus (GC 4545) (Staphylococcus sp.; 5×10^5 CFU/mL) | MIC Staphylococcus aureus (ATCC 29213) (Staphylococcus sp.; strain ATCC 29213) | MIC Staphylococcus aureus (GC 1131) (Staphylococcus sp.; strain GC 1131) | MIC Staphylococcus aureus (GC 3051) (Staphylococcus sp.; strain GC 3051) | MIC Staphylococcus aureus (GC 3053) (Staphylococcus sp.; strain GC 3053) | MIC Staphylococcus aureus (GC 4541) (Staphylococcus sp.; strain GC 4541) | MIC Staphylococcus aureus (GC 4542) (Staphylococcus sp.; strain GC 4542) | MIC Staphylococcus aureus-SMITH (GC 4543) (Staphylococcus sp.; strain GC 4543) | MIC Staphylococcus aureus (GC 4544) (Staphylococcus sp.; strain GC 4544) | MIC Staphylococcus aureus (GC 4545) (Staphylococcus sp.; strain GC 4545) | MIC Staphylococcus haemolyticus (GC 4546) (Staphylococcus sp.; strain GC 4546) | MIC Coagulase Negative Staphylococcus (GC 4547) (Staphylococcus sp.; strain GC 4547) | MIC Coagulase Negative Staphylococcus (GC 4548) (Staphylococcus sp.; strain GC 4548) | MIC Coagulase Negative Staphylococcus (GC 4549) (Staphylococcus sp.; strain GC 4549) | MIC Coagulase Negative Staphylococcus (GC 4551) (Staphylococcus sp.; strain GC 4551) | MIC Coagulase Negative Staphylococcus (GC 6257) (Staphylococcus sp.; strain GC 6257) | MIC Enterococcus avium (GC 4558) (Enterococcus sp.; [1]) | MIC Enterococcus faecalis (ATCC 29212) (Enterococcus sp.; [1]) | MIC Enterococcus faecalis (GC 2242) (Enterococcus sp.; [1]) | MIC Enterococcus faecalis (GC 2691) (Enterococcus sp.; [1]) | MIC Enterococcus faecalis (GC 3059) (Enterococcus sp.; [1]) | MIC Enterococcus faecalis (GC 4552) (Enterococcus sp.; [1]) | MIC Enterococcus faecalis (GC 4553) (Enterococcus sp.; [1]) | MIC Enterococcus faecalis (GC 4554) (Enterococcus sp.; [1]) | MIC Enterococcus faecalis (GC 6189) (Enterococcus sp.; [1]) | MIC Enterococcus faecium (GC 2243) (Enterococcus sp.; [1]) | MIC Enterococcus faecium (GC 4556) (Enterococcus sp.; [1]) | MIC Enterococcus faecium (GC 4557) (Enterococcus sp.; [1]) | MIC Enterococcus faecalis (ATCC 29212) (Enterococcus sp.; strain ATCC 29212) | MIC Enterococcus faecalis (GC 2242) (Enterococcus sp.; strain GC 2242) | MIC Enterococcus faecium (GC 2243) (Enterococcus sp.; strain GC 2243) | MIC Enterococcus faecalis (GC 2691) (Enterococcus sp.; strain GC 2691) | MIC Enterococcus faecalis (GC 3059) (Enterococcus sp.; strain GC 3059) | MIC Enterococcus faecalis (GC 4552) (Enterococcus sp.; strain GC 4552) | MIC Enterococcus faecalis (GC 4553) (Enterococcus sp.; strain GC 4553) | MIC Enterococcus faecalis (GC 4554) (Enterococcus sp.; strain GC 4554) | MIC Enterococcus faecium (GC 4556) (Enterococcus sp.; strain GC 4556) | MIC Enterococcus faecium (GC 4557) (Enterococcus sp.; strain GC 4557) | MIC Enterococcus avium (GC 4558) (Enterococcus sp.; strain GC 4558) | MIC Enterococcus faecalis (GC 6189) (Enterococcus sp.; strain GC 6189)
